Like-named read-outs stand apart in the source and are kept apart here.
B1: CC-Tet-B-RRXS14 (peptide)
chain: Ac-GAIKQKLAAIRRKSAAIKWKLAAIKQKLAG-NH2
B2: apCC-Tet-B-S20 (peptide)
chain: Ac-GKLKALAQKLKALAKKLKASAWKLKALAQG-NH2

Key:
[1] = CD, PBS pH 7.4, 10 μM individual peptide; ref 5 (Edgell et al., 2020); cited from earlier work
Experimental: page 28: Table S4. Biophysical parameters for switchable peptides and complexes. Peptide(s) Helicity at 5 °C (%)a TM (°C) CC-Tet-A 37b < 20b CC-Tet-B 37b < 20b CC-Tet-A-S14 23 < 20 CC-Tet-A-S7 29 < 20 CC-Tet-A-S21 25 < 20 CC-Tet-B-RRXS14 26 < 20 CC-Tet-A + B 87b > 95b CC-Tet-A-S14 + B-RRXS14 67 62 CC-Tet-A-S7 + B-RRXS14 70 66 CC-Tet-A-S21 + B-RRXS14 81 72 apCC-Tet-A-S10 48 < 20 apCC-Tet-A-S17 42 < 20 apCC-Tet-B-S20 40 < 20 apCC-Tet-B-RRXS13 39 < 20 apCC-Tet-B-RRXS20 38 < 20 apCC-Tet-A-S10 + B-S20 93 > 95 apCC-Tet-A-S10 + B-RRXS20 80 75 apCC-Tet-A-S17 + B-RRXS13 84 72 apCC-Tet-A-S17 + B-RRXS20 ...

[2] = even at 100 μM; cited from earlier work
[3] = Thermal denaturation monitored by CD (MRE222), midpoint TM; type: physicochemical; conditions: for TM (°C), midpoint of thermal unfolding: CD at 222 nm, 5 to 95 °C, PBS pH 7.4, 10 μM individual peptide; for folding and thermal stability by CD, in words: PBS pH 7.4, 10 µM individual peptide
Experimental: (§1) CD spectra and thermal denaturation curves were obtained using a JASCO J810 or 815 spectropolarimeter fitted with a Peltier temperature controller. CD spectra (260 to 190 nm, with 1 nm step size, 100 nm.min^–1 scanning speed, 1 nm bandwidth and 1 s response time) were measured in PBS (137 mM NaCl, 2.7 mM KCl, and 10 mM phosphate buffer, pH 7.4) at 5 °C in quartz cuvettes. Thermal denaturation experiments were performed using 10 μM individual peptide concentration in a 5 mm cuvette. For thermal denaturation experiments, the CD signal at 222 nm was recorded at 1 °C intervals upon heating from 5 to 95 °C at a rate of 40 or 60 °C/h (1 nm interval, 1 nm bandwidth, 16 s response time). Data was buffer subtracted, and then normalized for peptide concentration, number of amide bonds present, and cuvette path length to give the mean residue ellipticity (MRE). Midpoints of thermal denaturation were calculated using the second derivative of the corresponding thermal denaturation curve. Fraction helix (%) was calculated using the following equation (where MREcoil = 640 – 45T; T, temperature (°C); n, number of amide bonds in sample including C-terminal amide):[68] [drawing 2]

[4] = CD spectroscopy, helicity at 5 °C; type: physicochemical; conditions: PBS pH 7.4, 10 μM individual peptide
Experimental: as §1

[5] = target: CC-Tet-A-S14; assay: Isothermal titration calorimetry (ITC) of CC-Tet-B-RRXS14 into CC-Tet-A-S14; type: binding; conditions: 200 μM CC-Tet-B-RRXS14 into 20 μM CC-Tet-A-S14, PBS, 37 °C, heterodimer model, global fit n = 3, read-out: observable KD (concentration at which the complex is half folded)
Experimental: To model the disassembly of the A2B2 complex into the unfolded peptides A and B, we needed to determine the dissociation constant (KD) and use this to estimate the forward and reverse rate constants, koff and kon (Figure 5). To do this, we used isothermal titration calorimetry (ITC), titrating CC-Tet-B-RRXS14 into 20 μM CC-Tet-A-S14 at 37 °C, and the heat released upon binding was measured. […] We contend that this sub-μM KD—which is consistent with our CD measurements (Figure S30)—is close to ideal for use in synthetic biology systems in cells and in vitro, as functioning at μM concentrations leaves the system poised in a folded state, but close to unfolding, rendering it receptive to phosphorylation-induced switching.
Peptides were dissolved in PBS buffer to a concentration around 1 mM and a volume of 1 mL. Samples were then individually dialyzed into 1.5 L of PBS with gentle stirring overnight using a Mini Dialysis Kit (Cyvita) with a 1 kDa membrane cut off. Sample concentration was subsequently remeasured to account for changes in volume because of diffusion during dialysis. […]
To analyze the data, NITPIC, SEDPHAT, and GUSSI were used.[72]−[74] […] Following this, experiments were analyzed using SEDPHAT, which allowed correction of concentration deviations and outlier injection exclusion, after which data was fitted to a heterodimer model (as no heterotetramer model was available). […]

[6] = Sedimentation-velocity analytical ultracentrifugation; type: physicochemical; conditions: PBS pH 7.4, 20 °C, 70 μM of each peptide for mixtures
Experimental: Sedimentation-velocity (SV) experiments were conducted at 20 °C in a Beckman-Optima XL-I analytical ultracentrifuge using an An-60 Ti rotor. Samples were prepared in PBS at 140 μM total peptide concentration. Samples were centrifuged at a speed of 50,000 or 60,000 rpm. The partial specific volume (v̅) for each peptide was calculated and data sets were fitted to a single, ideal species model using SEDFIT. Sedimentation-equilibrium (SE) experiments were conducted at 20 °C in a Beckman-Optima XL-I analytical ultracentrifuge using an An-50 Ti rotor. Samples were prepared in PBS at 70 μM total peptide concentration. Samples were centrifuged at a range of speeds from 18,000–39,000 rpm with defined intervals, and 8 h between subsequent scans. Data sets were analyzed using SEDPHAT.

[7] = target: T1, CC-Tet-A-S14 (N-terminal acetyl; C-terminal amide); assay: ITC; 200 μM CC-Tet-B-RRXS14 injected into 20 μM CC-Tet-A-S14, 37 °C, PBS; fitted to a heterodimer model, global fit of three experiments; observable (apparent) KD; conditions: both partners purified
T1 chain: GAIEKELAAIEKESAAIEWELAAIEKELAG

[8] = target: T1, CC-Tet-A-S14; assay: kinetic model fitted to the CD phosphorylation time course; ordinary differential equations (Berkeley Madonna); koff and kon optimised with K_D(T) held at 3.18 × 10^-19 M^3; tetramer A2B2 to unfolded peptides A and B; 37 °C, 10 μM of each peptide; conditions: both partners purified
[9] = target: T2, apCC-Tet-A-S17 (N-terminal acetyl; C-terminal amide); assay: circular dichroism (Job plot); fraction helix at different ratios of the two peptides, total peptide concentration 20 μM, PBS pH 7.4; conditions: both partners purified
T2 chain: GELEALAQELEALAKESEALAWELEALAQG

Row | Molecule | TM (°C), midpoint of thermal unfolding [3] | Helicity at 5 °C (%) [4] | also measured
1 | Ac-G AIEK ELAAIEK ELAAIEW ELAAIEK ELA G-NH2 [CC-Tet-A, acidic peptide of the previously published parallel heterotetramer CC-Tet-A2B2] | – | – | TM (°C), midpoint of thermal unfolding [1]: < 20 °C; self-association of individual peptide [2]: do not self-associate
2 | Ac-G AIEK ELAAIEK ELAAIEW ESAAIEK ELA G-NH2 [CC-Tet-A-S21, CC-Tet-A variant with Ser at position 21] | < 20 °C | 25% | –
3 | Ac-G AIEK ELAAIEK ESAAIEW ELAAIEK ELA G-NH2 [CC-Tet-A-S14, CC-Tet-A variant with Ser at position 14] | < 20 °C | 23% | –
4 | Ac-G AIEK ESAAIEK ELAAIEW ELAAIEK ELA G-NH2 [CC-Tet-A-S7, CC-Tet-A variant with Ser at position 7] | < 20 °C | 29% | –
5 | Ac-G AIKQ KLAAIKQ KLAAIKW KLAAIKQ KLA G-NH2 [CC-Tet-B, basic peptide of the previously published parallel heterotetramer CC-Tet-A2B2] | – | – | TM (°C), midpoint of thermal unfolding [1]: < 20 °C; self-association of individual peptide [2]: do not self-associate
6 | Ac-G AIKQ KLAAIRR KSAAIKW KLAAIKQ KLA G-NH2 [CC-Tet-B-RRXS14, basic parallel peptide with PKA site R-R-X-S, Ser at position 14] | < 20 °C | 26% | Kd [5]: 542 nM
7 | Ac-G ELEALAQ ELEALAK ELEALAW ELEALAQ G-NH2 [apCC-Tet-A1, initial acidic antiparallel design] | – | – | folding and thermal stability by CD, in words [3]: stably folded; oligomeric state from SV AUC (x monomer mass) [6]: 4.5 x monomer mass
8 | Ac-G ELEALAQ ELEALAK ESEALAW ELEALAQ G-NH2 [apCC-Tet-A-S17, acidic antiparallel peptide with Ser at position 17] | < 20 °C | 42% | –
9 | Ac-G ELEALAQ ESEALAK ELEALAW ELEALAQ G-NH2 [apCC-Tet-A-S10, acidic antiparallel peptide with Ser at position 10] | < 20 °C | 48% | –
10 | Ac-G KLKALAQ KLKALAK KLKALAW KLKALAQ G-NH2 [apCC-Tet-B1, initial basic antiparallel design] | – | – | folding and thermal stability by CD, in words [3]: stably folded; oligomeric state from SV AUC (x monomer mass) [6]: 5.2 x monomer mass
11 | Ac-G KLKALAQ KLKALAK KLKASAW KLKALAQ G-NH2 [apCC-Tet-B-S20, basic antiparallel peptide with Ser at position 20] | < 20 °C | 40% | –
12 | Ac-G KLKALAQ KLKALAK KRRASAW KLKALAQ G-NH2 [apCC-Tet-B-RRXS20, basic antiparallel peptide with PKA site, Ser at position 20] | < 20 °C | 38% | –
13 | Ac-G KLKALAQ KRRASAK KLKALAW KLKALAQ G-NH2 [apCC-Tet-B-RRXS13, basic antiparallel peptide with PKA site, Ser at position 13] | < 20 °C | 39% | –
14 | B1 | – | – | Kd [7]: 542 nM; stoichiometry N [7]: ~1; koff [8]: 0.0038 s⁻¹; kon [8]: 229000 M⁻¹ s⁻¹
15 | B2 | – | – | stoichiometry N [9]: 1
